# Tests used:
# [1] = test system: LDL; conditions: 5-50 μM; oxidation by copper ions, monocytes, or endothelial cells; cited from earlier work
# [2] = test system: antioxidant enzymes (SOD, CAT, GPX, GR) in bAECs; test: Antioxidant enzyme (AOE) activities in cell lysates, all four enzymes together; assay type: cell-based, bovine
# Method: […] The cells were then lysed on ice by sonication at a setting of 50 mW, with 3×15 set cycles using a Cole-Parmer Ultrasonic Homogenizer (Chicago, Ill.). Protein concentrations in the samples were determined by the Bradford method with bovine serum albumin as a standard (Bradford, Anal. Biochem. 72:248-254, 1976).
# (§1) SOD activity was determined by a method based on the ability of SOD to suppress epinephrine auto-oxidation (Misra and Fridovich, J.Biol. Chem. 247:3170-3175, 1972). One unit of SOD activity is defined as the amount of protein that inhibits the oxidation of epinephrine by 50%. Briefly, 100 μl of 10×-diluted cell homogenate (about 10 μg protein) was added to 900 μl of carbonate buffer (0.1 M NaHCO3, 0.1 M Na2CO3, 0.1 mM EDTA, pH 10.2) containing 0.7 mM of epinephrine. The absorbency of the mixture was measured for 4 minutes at 480 nm using a Hitachi U-2000 spectrophotometer (Hitachi, San Jose, Calif.).
# (§2) CAT activity was determined by the method of Aebi (Methods Enzymol. 105:121,-126, 1984). One unit of CAT activity is defined as the amount of protein that degrades 1 μmole of H2O2 per minute. Initially, 10 μl of absolute ethanol was mixed with 100 μl of cell homogenates and pre-incubated at 4° C. for 30 minutes. Following the addition of 10 μl Triton X-100 (reduced form), a 100 μl aliquot (about 100 μg of protein) of the resultant mixture was next added to 500 μl of hydrogen peroxide (66 mM) and 400 μl of phosphate buffer (0.1 M NaH2PO4, 0.1 M Na2HPO4, 0.1 mM EDTA, pH 7.0). The absorbency of the mixture was monitored for one minute at 240 nm spectrophotometrically. The molar extinction coefficient of 43.6 M/cm was used to determine the catalase activity.
# (§3) GPX activity was determined by a modified method of Flohe and Gunzler (Methods Enzymol. 105:114-121, 1984). One unit of GPX activity is defined as the amount of protein that oxidizes 1 nmole of β-NADPH per minute. In this assay, 100 μl of cell homogenate (about 100 μg protein) was added to 800 μl of phosphate buffer (0.1 M NaH2PO4, 0.1 M Na2HPO4, 0.1 mM EDTA, pH 7.0) containing 12.5 mM glutathione (reduced form, GSH), 0.2 mM β-nicotinamide adenine dinucleotide phosphate (reduced form, β-NADPH), and 0.34 U glutathione reductase. This mixture was pre-incubated at 37 C for 10 minutes and then 100 μl of 12 mM t-butyl hydroperoxide was added. The absorbency of the mixture was determined at 340 nm for 3 minutes. The molar extinction coefficient of 6.22 mM/cm was used to determine the activity of GPX.
# GR activity was determined by a modified method of Carlberg and Mannervik (Methods Enzymol. 11 3:484-490, 1985). One unit of GR activity is defined as the amount of protein that oxidizes 1 nmole of β-NADPH per minute. Briefly, 50 μl of 2 mM β-NADPH in 10 mM Tris buffer (pH 7.0) was added to a cuvette containing 50 μl of 20 mM glutathione (oxidized ofrm, GSSG) in phosphate buffer (0.1 M NaH2PO4, 0.1 M Na2HPO4, 0.1 mM EDTA, pH 7.0) and 800 μl of phosphate buffer. Following the addition of cell homogenate (about 100 μg protein/100 μl) the final mixture was measured at 340 nm for 3 minutes. The molar extinction coefficient of 6.22 mM/cm was used to determine the activity of […].
# [3] = test system: catalase (CAT); test: CAT activity in cell lysate (H2O2 degradation); assay type: cell-based, bovine
# Method: (§4) Cells pretreated with different concentrations of E2 for 24 hours were harvested in a solution containing 50 mM Tris-HCl (pH 7.4), 1 mM EDTA, 2 μg/ml pepstatin A, 10 μg/ml benzamidine, and 10 μg/ml trypsin inhibitor. The cells were then lysed on ice by sonication at a setting of 50 mW, with 3×15 set cycles using a Cole-Parmer Ultrasonic Homogenizer (Chicago, Ill.). Protein concentrations in the samples were determined by the Bradford method with bovine serum albumin as a standard (Bradford, Anal. Biochem. 72:248-254, 1976).
# as §2
# [4] = test system: endothelial nitric oxide synthase; conditions: cited from earlier work
# [5] = test system: glutathione peroxidase (GPX); test: GPX activity in cell lysate (NADPH oxidation); assay type: cell-based, bovine
# Method: as §4, §3
# [6] = test system: bovine aortic endothelial cells (bAECs)
# Method: Prior to E2 pretreatment, cells were grown in phenol red-free DMEM supplemented with 10% dextran/charcoal-stripped FBS for at least 1 passage (3-4 days). Phenol red-free Dulbecco's modified medium was used to avoid potential estrogenic interference. Serum steroid deprivation was conducted according to the conditions described by Yeh et al. (Proc. Natl. Acad. Sci. USA 95:5527-5532, 1998). The E2 level in the stripped serum was assayed using an [^125I] 17β-estradiol radioimmunoassay kit (TKE21, Diagnostic Products Corporation, Los Angeles, Calif.). […] The cells grown in E2-free environments were plated onto Falcon 24-well Primariae™ plates at a density of 5×10^4 cells/well. E2 in dimethylsulfoxide (DMSO) was added to each well at final concentrations ranging from 1 nM to 10 μM 3 hours after plating, and the cells were then incubated for 24 hours (a duration commonly used for the studies of the genomic effects of E2) at 37° C. Control cells were treated with a corresponding amount of DMSO (a final concentration 0.05%).
# To study the difference between male and female cells in their response to E2, bAECs from male and female animals were treated with various concentrations of E2 for 24 hours and then challenged with paraquat (1,1′-dimethyl-4,4′-bipyridinium dichloride, methyl viologen). Paraquat was used because it generates the superoxide anion O2 in living cells. […] Accordingly, E2 ranging in concentration from 1 nM to 10 μM was used in these studies.
# [7] = test system: superoxide dismutase (SOD); test: SOD activity in cell lysate (epinephrine auto-oxidation); assay type: cell-based, bovine
# Method: as §4, §1
# [8] = 1 nM E2 pretreatment (Example 8)
# [9] = female bAECs, 24 h 1 nM E2 (Example 12)
structure (smiles),measurement,setting,value
"C[C@]12CC[C@@H]3c4ccc(O)cc4CC[C@H]3[C@@H]1CC[C@@H]2O [E2, 17β-estradiol]",effect on LDL oxidation,[1],inhibit LDL oxidation
same,AOE activities after brief incubation,"[2]; 1 nM E2, 30 minutes",did not affect the activities of AOEs
same,activities of the four antioxidant enzymes,"[2]; 1 nM-10 μM E2, 24 h",significant increases in the activities of all four of the enzymes tested
same,E2 concentration of optimal AOE induction,[2]; 24 h pretreatment,1 to 10 nM
same,AOE activities,"[2]; female bAECs, 24 hour, 1 nM E2",significant elevation of all of the four AOE activities tested
same,AOE activities,[2]; male bAECs incubated with 1 nM E2,not induced
same,CAT activity elevation relative to untreated cells,[3]; [8],~2 fold
same,CAT activity increase,[3]; [9],~2 fold
same,optimal concentration of E2 for endothelial nitric oxide synthase induction,[4],1 to 10 nM
same,GPX activity elevation relative to untreated cells,[5]; [8],~2 fold
same,GPX activity increase,[5]; [9],~3 fold
same,E2 concentration that suppressed growth,"[6]; both, bovine, 24 h",≥ 100 µM
same,E2 concentration that significantly inhibited endothelial cell growth,"[6]; female, bovine, 24 h",≥ 100 µM
same,cell count without subsequent paraquat exposure,"[6]; groups pretreated with various doses of E2, comparable among groups, average",3.1×10^5 per well
same,SOD activity elevation relative to untreated cells,[7]; [8],approximately 4 fold
same,SOD activity increase,[7]; [9],about 4 fold

# From patent publication US20020164581A1 (priority 2001, published 2002)
